This note sets out measurements from patent US9358224B2, “Pharmaceutical formulation comprising a phosphodiesterase inhibitor” (CHIESI FARMACEUTICI S.p.A., priority 2011, dated 2016).

A short description of this data set: Chemical stability study of the pMDI formulation at 25° C./60% RH. The data set is classed as physicochemical. The note with it: 1 and 3 months at 25° C./60% RH. As to the method:
Physical and chemical stability of the formulation reported in table 1 has been assessed in a stability study at 1 and 3 months at 25° C./60% relative humidity (RH).
Chemical stability and performances data of the formulation are reported in Table 2, wherein “mean delivered dose intra-can” means the mean delivered dose of ten actuations on the same can (3 actuations at the beginning, 4 actuations in the middle and 3 actuations at the end of the life of the can).

For the compound `CS(=O)(=O)Nc1ccc(C(=O)OC(Cc2c(Cl)c[n+]([O-])cc2Cl)c2ccc(OC(F)F)c(OCC3CC3)c2)cc1OCC1CC1` (single isomer, unassigned; (-)) [Compound C2, (−)-3-Cyclopropylmethoxy-4-methanesulfonylamino-benzoic acid 1-(3-cyclopropylmethoxy-4-difluoromethoxy-phenyl)-2-(3,5-dichloro-1-oxy-pyridin-4-yl)-ethyl ester], the “chemical stability of C2 in the formulation (in words)” value was “no degradation during stability”.
